Among the data in patent US6835736B1, “Discorhabdin compounds and methods of use” (Harbor Branch Oceanographic Institution, Inc., priority 2003, dated 2004) are IC50 values, retold here.

Broadly, the IC50 is the concentration that inhibits the measured activity by half.

Holding throughout (assay type): cell-based
For assay [1], the system named is PANC-1 human pancreatic cell line. The assay can be described thus: Antiproliferative MTT assay, PANC-1 cells. The settings on record: additional 48 hour exposure. Here is the method: (§1) Extracts and compounds were analyzed as to their effects on proliferation of A549 human adenocarcinoma, PANC-1 human pancreatic and P388 murine leukemia cell lines. P388 and NCI/ADR cells were obtained from Dr. R. Camalier, National Cancer Institute, Bethesda, Md., and A549 and PANC-1 cells were obtained from American Type Culture Collection, Rockville, Md. All cell lines were maintained in Roswell Park Memorial Institute (RPMI) medium 1640 supplemented with 10% fetal bovine sernm. All cell lines are cultured in plastic tissue culture flasks and kept in an incubator at 37° C. in humidified air containing 5% CO2. Prior to testing, antibiotic-free stock cultures of each of the cell lines were subcultured to […] by dilution in fresh growth medium at 2 to 3 day intervals.
(§2) To assess the antiproliferative effects of extracts and compounds against the P388 cell line, 200 μl cultures (96-well tissue culture plates, Nunc, Denmark) are established at 1×10^5 cells/ml in drug-free medium or medium containing the test agent at 10.0, 1.0, 0.10 and 0.010 μg/ml. Solvent for all dilutions ethanol. All experimental cultures are initiated in medium containing gentamycin su fate (50 μg/ml; Schering Corporation, Kenilworth, N.J.). After 48-h exposures, P388 cells are enumerated using 3-[4,5-dimethylthiazol-2-yl]-2,5-diphenyltetrazolium bromide (MTT) as described below (M. C. Alley et al., 1988, Cancer Res. 48:589.
(§3) Similar procedures are utilized for A549 and PANC-1 cells which require an additional 48 hour exposure prior to MTT addition. Results are expressed as percent inhibition compared to the negative (no drug) control. Positive drug controls are included to monitor drug sensitivity of each of the cell lines. These include varying dilutions of 5-fluorouracil and adriamycin.
(§4) To quantitate the effects of pure compounds on cell proliferation and resulting IC50 values, 75 μl of warm growth media containing 5 mg/ml MTT is added to each well, cultures returned to the incubator, and left undisturbed for 90 minutes. […]

Assay [2] relates to NCI/ADR cells. The assay can be described thus: Antiproliferative MTT assay, NCI/ADR cells. The settings on record: Homo sapiens, NCI/ADR-RES. On the procedure: as §1
(§5) To quantitate the effects of pure compounds on cell proliferation and resulting IC50 values, 75 μl of warm growth media containing 5 mg/ml MTT is added to each well, cultures returned to the incubator, and left undisturbed for 90 minutes. To spectrophotometrically quantitate formation of reduced formazan, plates are centrifuged (900×g, 5 minutes), culture fluids removed by aspiration, and 200 μl of acidified isopropanol (2 ml concentrated HCl/liter isopropanol) added per well. The absorbance of the resulting solutions is measured at 570 nm with a plate reader (TECAN Spectra II Plate Reader, TECAN U.S., Research Triangle Park, NC). […]
(In general: Tetrazolium dyes change colour on reduction, which living cells bring about.)

For assay [3], the system named is A549 human adenocarcinoma cell line. The assay can be described thus: Antiproliferative MTT assay, A549 cells. The settings on record: additional 48 hour exposure. On the procedure: as §1, §2, §3, §4
Assay [4] concerns P388 murine leukemia cell line. The assay can be described thus: Antiproliferative MTT assay, P388 cells. To be noted: Mus musculus, 48-h exposure, read-out: Activity (IC50) P-388. On the procedure: as §1, §2, §5

As for `CSC1=CC(=O)C(Br)=CC12C=CNC1=C2C2=NCCc3cn(C)c(c32)C1=O` (stereo not drawn) [Discorhabdin U], the IC50 in assay [1] stood at 0.069 µg/mL; in assay [2], 0.22 µg/mL; in assay [3], 0.34 µg/mL; in assay [4], 0.17 µg/mL.
Regarding `CSC1=CC(=O)C(Br)=CC12CCNC1=C2c2nccc3cn(C)c(c23)C1=O` (stereo not drawn) [Discorhabdin S], the IC50 was 2.6 µg/mL in assay [1], above 5 µg/mL in assay [2], above 5 µg/mL in assay [3] and 3.08 µg/mL in assay [4].
For `CSC1=CC(=O)C(Br)=CC12C=CNC1=C2c2nccc3cn(C)c(c23)C1=O` (stereo not drawn) [Discorhabdin T], the IC50 is 0.7 µg/mL in assay [1], above 5 µg/mL in assay [2], above 5 µg/mL in assay [3] and above 5 µg/mL in assay [4].
